Data set [1] is described as follows: Bulk stability under stressed conditions, one or two weeks. It is filed as physicochemical. The conditions noted are these: all temperatures and humidities tested, one week or two weeks. As to the method:
Bulk Stability Under Stressed Conditions: About 20-30 mg of the trihydrate form of the dihydrochloride salt was weighed into HPLC vials and stressed at 25° C. and 60% relative humidity (open), 40° C. and 75% relative humidity (open), and 60° C. (closed) for one week and for two weeks.

Data set [2] in a line: Bulk stability in very high humidity, one week. In kind it is physicochemical. As for the experimental part:
Bulk Stability in Very High Humidity: The trihydrate form of the dihydrochloride salt was stressed at 25° C. and 97% relative humidity (open), 40° C. and 96% relative humidity (open), and 60° C. and 96% relativity humidity (open) for one week.

Data set [3] in a line: Stability of the trihydrate form stored in bulk in a GMP storage facility. To be noted: room temperature, RH >30%, up to 11 years. In kind it is physicochemical. As to the method:
The trihydrate form was evaluated for stability with regard to purity and strength over a time period of up to 11 years, by storing it in a GMP facility under controlled conditions of temperature and relative humidity (temperature=room temperature and relative humidity >30%).

The conditions of data set [4]: for Resulting Form: slurry, antisolvent Water, ambient, 3 weeks. As to the method: Noncompetitive Slurry Experiments for Polymorph Screening: Noncompetitive slurry experiments were performed as a supplemental polymorph screening method. When suspensions of a polymorphic material are prepared, any polymorphic form with a lower solubility (more thermodynamically stable form) can nucleate. The nucleated forms can convert all the residual solids to the nucleated form via solvent-mediated phase transition. Suspensions of the isolated Form I were prepared by adding excess solid to several different solvent systems. The suspensions were stirred vigorously at ambient temperature for 3 weeks. The remaining solids were collected by vacuum filtration and analyzed by powder X-ray diffraction to determine if any changes in the crystalline form of the solids occurred.

Data set [5] in a line: 12-month stability of the anhydrous form at controlled temperature and humidity (HPLC, water content). In kind it is physicochemical. The conditions noted are these: 25° C./60% RH. As to the method:
The dihydrochloride salt, anhydrous form of (3S, 4R, 3′R)-6-[4-(4-amino-5-chloro-2-methoxy-benzoylamino)-3-methoxy-piperidin-1-yl]-hexanoic acid 1-azabicyclo[2.2.2]oct-3′-yl ester, was placed in stability chambers with temperature and humidity controlled, for up to 12 months. The temperature was set at 25° C., and the relative humidity was set at 60%. The samples were assayed at time zero, then at 3, 6, 9, and 12 months using an HPLC method. The HPLC conditions were as follows:
Column: Inertsil C8-3, 250 mm length, 3 mm diameter, 5 um particle size
Mobile Phase A: 2000 mL water+3 mL formic acid
Mobile Phase B: 1000 mL methanol+3 mL formic acid
Detection wavelength: 275 nm

Data set [6] in a line: Dehydration profile by thermographic analysis (TGA). In kind it is physicochemical. The conditions noted are these: 25° C. to 250° C. As to the method:
Thermographic analysis (TGA) curves were generated for the anhydrate and trihydrate using a Perkin Elmer TGA-7. Three to five milligram samples were weighed into aluminum sample pans and run under dry nitrogen at 5° C./minute from 25° C. to 250° C. The data were exported to Excel to enable plotting.
The two differ in the appearance of the dehydration mass loss observed for the trihydrate and absent as expected from the anhydrate. Dehydration of the trihydrate started immediately upon start of heating and was complete by approximately 50° C. Complete dehydration below 100° C. is consistent with the assignment of the trihydrate as a channel type hydrate.

Structures can show the parent of a compound that is named as a salt. Where two headings read alike, the source gives them in different places.

In the case of `COc1cc(N)c(Cl)cc1C(=O)N[C@@H]1CCN(CCCCCC(=O)O[C@H]2CN3CCC2CC3)C[C@@H]1OC` [Compound 1, (3S, 4R, 3′R)-6-[4-(4-amino-5-chloro-2-methoxy-benzoylamino)-3-methoxy-piperidin-1-yl]-hexanoic acid 1-azabicyclo[2.2.2] oct-3′-yl ester di-hydrochloride salt], the “Physical and chemical stability” value is “both physically and chemically stable” in data set [1]; “both physically and chemically stable” in data set [2] (25° C. and 97% relative humidity (open)); “underwent liquescence” in data set [2] (temperature elevated to 40° C. or 60° C., 96% relative humidity (open)). Moreover, the “Stability under GMP storage” value in data set [3] is reported as “stable”.
On to `COc1cc(N)c(Cl)cc1C(=O)N[C@@H]1CCN(CCCCCC(=O)O[C@H]2CN3CCC2CC3)C[C@@H]1OC` [Form I, (3S, 4R, 3′R)-6-[4-(4-amino-5-chloro-2-methoxy-benzoylamino)-3-methoxy-piperidin-1-yl]-hexanoic acid 1-azabicyclo[2.2.2]oct-3′-yl ester], for which the “Thermodynamic stability among anhydrous forms” value in data set [4] (based on the outcome of the slurry experiments) is “most thermodynamically stable anhydrous form”. For the same compound, the “Resulting Form” value in data set [4] (solvent 1-Propanol), in data set [4] (solvent Acetonitrile), in data set [4] (solvent Ethanol), in data set [4] (solvent Methanol) and in data set [4] (solvent Water) was “Form 1” throughout.
For the compound “(3S, 4R, 3′R)-6-[4-(4-amino-5-chloro-2-methoxy-benzoylamino)-3-methoxy-piperidin-1-yl]-hexanoic acid 1-azabicyclo[2.2.2]oct-3′-yl ester”, the “Purity HPLC (Area %)” value in data set [5] (0 months) was 99.3 Area %; in data set [5] (3 months) it was 99.2 Area %; in data set [5] (6 months) it was 99.3 Area %; in data set [5] (9 months) it was 99.2 Area %; in data set [5] (12 months), 99.3 Area %. Moreover, the “Water Content” value in data set [5] (0 months) was determined as 0.45%; in data set [5] (3 months) it was 6.47%; in data set [5] (6 months) it was 8.47%; in data set [5] (9 months) it was 8.20%; in data set [5] (12 months), 8.43%. The “Decrease in strength of the active ingredient” value in data set [5] (due to increase in water content over 6 to 12 months) is listed as “approximately 8%”. Besides, the “Dehydration mass loss (TGA)” value in data set [6] is “absent”.

These data come from US20210355116A1, “METHODS OF PRODUCING NARONAPRIDE TRIHYDRATE” (Renexxion, LLC, priority 2018, published 2021).
